Here are results for 26 molecules from US7928107B2, “Quinazolines useful as modulators of ion channels” (Vertex Pharmaceuticals Incorporated, priority 2004, dated 2011).

The term IC50 denotes the concentration that gives 50% inhibition.

SMILES strings stand for the structures.

This experiment addresses NaV 1.8 channel (Homo sapiens, UniProt Q9Y5Y9). Briefly: Activity against NaV 1.8 channel (optical membrane potential assay). Type of experiment: cell-based. On the procedure: Compounds of the invention are useful as antagonists of voltage-gated sodium ion channels. Antagonist properties of test compounds were assessed as follows. Cells expressing the NaV of interest were placed into microtiter plates. After an incubation period, the cells were stained with fluorescent dyes sensitive to the transmembrane potential. The test compounds were added to the microtiter plate. The cells were stimulated with either a chemical or electrical means to evoke a NaV dependent membrane potential change from unblocked channels, which was detected and measured with trans-membrane potential-sensitive dyes. Antagonists were detected as a decreased membrane potential response to the stimulus. The optical membrane potential assay utilized voltage-sensitive FRET sensors described by Gonzalez and Tsien (See, Gonzalez, J. E. and R. Y. Tsien (1995) “Voltage sensing by fluorescence resonance energy transfer in single cells” Biophys J 69(4): 1272-80, and Gonzalez, J. E. and R. Y. Tsien (1997) “Improved indicators of cell membrane potential that use fluorescence resonance energy transfer” Chem Biol 4(4): 269-77) in combination with instrumentation for measuring fluorescence changes such as the Voltage/Ion Probe Reader (VIPR®) (See, Gonzalez, J. E., K. Oades, et al. (1999) “Cell-based assays and instrumentation for screening ion-channel targets” Drug Discov Today 4(9): 431-439).
24 hours before the assay on VIPR, CHO cells endogenously expressing a NaV1.2 type voltage-gated NaV are seeded in 96-well poly-lysine coated plates at 60,000 cells per well. Other subtypes are performed in an analogous mode in a cell line expressing the NaV of interest. • 1) On the day of the assay, medium is aspirated and cells are washed twice with 225 μL of Bath Solution #2 (BS#2). • 2) A 15 uM CC2-DMPE solution is prepared by mixing 5 mM coumarin stock solution with 10% Pluronic 127 1:1 and then dissolving the mix in the appropriate volume of BS#2. • 3) After bath solution is removed from the 96-well plates, the cells are loaded with 80 μL of the CC2-DMPE solution. Plates are incubated in the dark for 30 minutes at room temperature. • 4) While the cells are being stained with coumarin, a […] solution in BS#2 is prepared. In addition to DiSBAC2(3), this solution should contain 0.75 mM ABSCl and […] (prepared from 10 mM EtOH stock, Sigma #V-5754). • 5) After 30 minutes, CC2-DMPE is removed and the cells are washed twice with 225 μL of BS#2. As before, the residual volume should be 40 μL. • 6) Upon removing the bath, the cells are loaded with 80 μL of the DiSBAC2(3) solution, after which test compound, dissolved in DMSO, is added to achieve the desired test concentration to each well from the drug addition plate and mixed thoroughly. The volume in the well should be roughly 121 μL. The cells are then incubated for 20-30 minutes. • 7) Once the incubation is complete, the cells are ready to be assayed on VIPR® with a sodium add back protocol. 120 μL of Bath solution #1 is added to stimulate the NaV dependent depolarization. […] was used as an antagonist positive control for block of the NaV channel.
Data are analyzed and reported as normalized ratios of background-subtracted emission intensities measured in the 460 nm and 580 nm channels. Background intensities are then subtracted from each assay channel. Background intensities are obtained by measuring the emission intensities during the same time periods from identically treated assay wells in which there are no cells. The response as a function of time is then reported as the ratios obtained using the following formula: […]
The data is further reduced by calculating the initial (Ri) and final (Rf) ratios. These are the average ratio values during part or all of the pre-stimulation period, and during sample points during the stimulation period. The response to the stimulus R=Rf/Ri is then calculated. […]

NaV 1.8 channel, sequence (Q9Y5Y9 whole entry): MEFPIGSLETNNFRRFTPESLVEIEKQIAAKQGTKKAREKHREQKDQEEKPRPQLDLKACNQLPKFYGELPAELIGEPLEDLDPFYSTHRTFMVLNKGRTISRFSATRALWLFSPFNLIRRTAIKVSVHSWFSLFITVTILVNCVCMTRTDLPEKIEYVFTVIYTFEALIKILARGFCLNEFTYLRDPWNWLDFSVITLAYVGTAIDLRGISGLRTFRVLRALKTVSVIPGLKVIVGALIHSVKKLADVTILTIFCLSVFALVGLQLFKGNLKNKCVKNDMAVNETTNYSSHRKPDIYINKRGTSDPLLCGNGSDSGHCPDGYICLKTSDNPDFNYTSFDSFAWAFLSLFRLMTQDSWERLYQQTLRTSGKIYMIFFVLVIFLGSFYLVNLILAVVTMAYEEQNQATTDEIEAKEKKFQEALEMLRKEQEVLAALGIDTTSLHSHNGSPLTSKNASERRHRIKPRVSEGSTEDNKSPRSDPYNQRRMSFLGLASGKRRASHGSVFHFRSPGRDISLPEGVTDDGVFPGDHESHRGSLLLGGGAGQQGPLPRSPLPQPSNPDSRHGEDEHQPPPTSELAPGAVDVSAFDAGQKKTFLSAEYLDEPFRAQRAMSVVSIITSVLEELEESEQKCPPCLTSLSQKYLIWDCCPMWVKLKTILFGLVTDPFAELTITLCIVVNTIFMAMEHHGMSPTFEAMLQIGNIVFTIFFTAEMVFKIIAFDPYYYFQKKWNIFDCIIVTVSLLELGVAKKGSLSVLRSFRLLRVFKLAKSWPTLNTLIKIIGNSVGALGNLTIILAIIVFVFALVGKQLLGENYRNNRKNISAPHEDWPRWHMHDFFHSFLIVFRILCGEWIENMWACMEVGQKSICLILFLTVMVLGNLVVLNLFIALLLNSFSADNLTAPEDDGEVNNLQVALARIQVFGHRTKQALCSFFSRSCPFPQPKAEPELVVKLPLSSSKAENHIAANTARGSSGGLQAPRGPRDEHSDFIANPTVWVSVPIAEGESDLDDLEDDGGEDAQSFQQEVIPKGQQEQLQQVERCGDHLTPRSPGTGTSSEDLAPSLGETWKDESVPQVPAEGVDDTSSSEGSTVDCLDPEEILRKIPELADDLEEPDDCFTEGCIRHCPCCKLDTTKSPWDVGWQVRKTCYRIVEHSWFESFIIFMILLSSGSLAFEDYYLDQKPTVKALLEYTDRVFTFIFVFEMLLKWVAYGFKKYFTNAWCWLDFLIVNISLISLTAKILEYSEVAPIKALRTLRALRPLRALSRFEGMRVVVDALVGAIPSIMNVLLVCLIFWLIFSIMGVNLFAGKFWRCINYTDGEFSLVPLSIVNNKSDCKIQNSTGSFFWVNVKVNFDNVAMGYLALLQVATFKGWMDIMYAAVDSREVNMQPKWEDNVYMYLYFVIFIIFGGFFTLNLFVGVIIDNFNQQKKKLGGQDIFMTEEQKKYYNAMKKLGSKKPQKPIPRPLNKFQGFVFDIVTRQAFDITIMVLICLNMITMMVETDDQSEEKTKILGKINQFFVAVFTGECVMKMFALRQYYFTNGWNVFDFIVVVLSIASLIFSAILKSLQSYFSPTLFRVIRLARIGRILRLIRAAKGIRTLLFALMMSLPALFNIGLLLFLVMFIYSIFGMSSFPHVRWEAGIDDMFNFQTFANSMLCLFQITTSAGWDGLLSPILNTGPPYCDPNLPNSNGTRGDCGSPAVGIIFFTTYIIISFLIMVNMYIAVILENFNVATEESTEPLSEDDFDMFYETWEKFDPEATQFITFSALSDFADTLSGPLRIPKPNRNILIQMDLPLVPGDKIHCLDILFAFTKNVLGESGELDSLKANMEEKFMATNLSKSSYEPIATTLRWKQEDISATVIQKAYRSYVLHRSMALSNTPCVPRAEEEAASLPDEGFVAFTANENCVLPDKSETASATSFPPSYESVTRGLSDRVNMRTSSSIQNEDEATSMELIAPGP

On to `Cc1ccc2c(N3CCN(C(=O)OCc4ccncc4)CC3)nc(-c3ccccc3O)nc2c1` [Example 152, (Pyridin-4-yl)methyl 4-(2-(2-hydroxyphenyl)-7-methylquinazolin-4-yl)piperazine-1-carboxylate], for which the 50% inhibitory concentration (IC50) is greater than 10 µM.
The result for `CSCCC(O)C(=O)N1CCN(c2nc(-c3ccccc3O)nc3cc(C)ccc23)CC1` (centres unmarked) [Example 153, 2-Hydroxy-1-(4-(2-(2-hydroxyphenyl)-7-methylquinazolin-4-yl)piperazin-1-yl)-4-(methylthio)butan-1-one] reads 2 to 10 µM.
As to `Cc1ccc2c(N3CCN(C(=O)[C@H](O)CC(N)=O)CC3)nc(-c3ccccc3O)nc2c1` [Example 154, (R)-3-Hydroxy-4-(4-(2-(2-hydroxyphenyl)-7-methylquinazolin-4-yl)piperazin-1-yl)-4-oxobutanamide], the half-inhibitory concentration (IC50) is greater than 10 µM.
With `Cc1ccc2c(N3CCN(C(=O)[C@H](O)CC(C)C)C[C@@H]3C(C)C)nc(-c3ccccc3O)nc2c1` [Example 155, (R)-2-Hydroxy-1-((S)-4-(2-(2-hydroxyphenyl)-7-methylquinazolin-4-yl)-3-isopropylpiperazin-1-yl)-4-methylpentan-1-one], the IC50 is greater than 10 µM.
For `Cc1ccc2c(N3CCN(C(=O)OCc4cccnc4)CC3)nc(-c3c(O)cccc3F)nc2c1` [Example 156, (Pyridin-3-yl)methyl 4-(2-(2-fluoro-6-hydroxyphenyl)-7-methylquinazolin-4-yl)piperazine-1-carboxylate], the IC50 was in the range of 2 to 10 µM.
In the case of `Cc1ccc2c(N3CCN(C(=O)OCc4ccccc4)CC3CO)nc(-c3ccccc3O)nc2c1` (centres unmarked) [Example 157, 3-Hydroxymethyl-4-[2-(2-hydroxy-phenyl)-7-methyl-quinazolin-4-yl]-piperazine-1-carboxylic acid benzyl ester], the IC50 was 2 to 10 µM.
Turning to `C#CC(O)C(=O)N1CCN(c2nc(-c3ccccc3O)nc3cc(C)ccc23)CC1` (centres unmarked) [Example 158, 2-Hydroxy-1-(4-(2-(2-hydroxyphenyl)-7-methylquinazolin-4-yl)piperazin-1-yl)but-3-yn-1-one], the IC50 was greater than 10 µM.
Regarding `CCCCC(O)C(=O)N1CCN(c2nc(-c3ccccc3O)nc3ccccc23)CC1` (centres unmarked) [Example 159, 2-Hydroxy-1-(4-(2-(2-hydroxyphenyl)quinazolin-4-yl)piperazin-1-yl)hexan-1-one], the half-inhibitory concentration (IC50) was in the range of 2 to 10 µM.
In the case of `O=C(OCC1CCCCO1)N1CCN(c2nc(-c3ccccc3O)nc3ccc(F)cc23)CC1` (centres unmarked) [Example 160, (Tetrahydro-2H-pyran-2-yl)methyl 4-(6-fluoro-2-(2-hydroxyphenyl)quinazolin-4-yl)piperazine-1-carboxylate], the IC50 was greater than 10 µM.
For `Cc1ccc2c(N3CCN(C(=O)OCC4CCOC4)CC3)nc(-c3c(O)cccc3F)nc2c1` (centres unmarked) [Example 162, (Tetrahydrofuran-3-yl)methyl 4-(2-(2-fluoro-6-hydroxyphenyl)-7-methylquinazolin-4-yl)piperazine-1-carboxylate], the IC50 was in the range of 2 to 10 µM.
With `Cc1ccc2c(N3CCN(C(=O)O[C@H]4CCOC4)CC3)nc(-c3c(O)cccc3F)nc2c1` [Example 163, (S)-Tetrahydrofuran-3-yl 4-(2-(2-fluoro-6-hydroxyphenyl)-7-methylquinazolin-4-yl)piperazine-1-carboxylate], the IC50 fell in the range of 2 to 10 µM.
On to `Cc1ccc2c(N3CCN(C(=O)[C@H](O)CC(C)(C)O)CC3)nc(-c3ccccc3O)nc2c1` [Example 164, (R)-2,4-Dihydroxy-1-(4-(2-(2-hydroxyphenyl)-7-methylquinazolin-4-yl)piperazin-1-yl)-4-methylpentan-1-one], for which the IC50 is greater than 10 µM.
Under `CCC(C)(O)C(=O)N1CCN(c2nc(-c3ccccc3O)nc3cc(C)ccc23)CC1` (centres unmarked) [Example 165, 2-Hydroxy-1-(4-(2-(2-hydroxyphenyl)-7-methylquinazolin-4-yl)piperazin-1-yl)-2-methylbutan-1-one] stands 2 to 10 µM; under `Cc1ccc2c(N3CCN(C(=O)[C@@H](O)C(C)(C)C)CC3)nc(-c3ccccc3O)nc2c1` [Example 166, (S)-2-Hydroxy-1-(4-(2-(2-hydroxyphenyl)-7-methylquinazolin-4-yl)piperazin-1-yl)-3,3-dimethylbutan-1-one], greater than 10 µM.
The result for `Cc1ccc2c(N3CCN(C(=O)C(O)c4ccc(F)cc4)CC3)nc(-c3c(O)cccc3F)nc2c1` (centres unmarked) [Example 167, 1-(4-(2-(2-Fluoro-6-hydroxyphenyl)-7-methylquinazolin-4-yl)piperazin-1-yl)-2-(4-fluorophenyl)-2-hydroxyethanone] reads greater than 10 µM.
Under `Cc1ccc2c(N3CCN(C(=O)[C@H](O)CC(C)C)CC3)nc(-c3ccccc3O)nc2c1` [Example 168, (R)-2-Hydroxy-1-(4-(2-(2-hydroxyphenyl)-7-methylquinazolin-4-yl)piperazin-1-yl)-4-methylpentan-1-one] stands 2 to 10 µM.
Turning to `CNCC(=O)N(C)CC(=O)O[C@H](CC(C)C)C(=O)N1CCN(c2nc(-c3ccccc3O)nc3cc(C)ccc23)CC1` [Example 169, (R)-[Methyl-(2-methylamino-acetyl)-amino]-acetic acid 1-{4-[2-(2-hydroxy-phenyl)-7-methyl-quinazolin-4-yl]-piperazine-1-carbonyl}-3-methyl-butyl ester], the half-maximal inhibitory concentration (IC50) was greater than 10 µM.
Consider `Cc1ccc2c(N3CCN(C(=O)C(O)c4ccc(F)cc4)CC3)nc(-c3ccccc3O)nc2c1` (centres unmarked) [Example 170, 2-(4-Fluorophenyl)-2-hydroxy-1-(4-(2-(2-hydroxyphenyl)-7-methylquinazolin-4-yl)piperazin-1-yl)ethanone], for which the IC50 is greater than 10 µM.
Consider `Cc1ccc2c(N3CCN(C(=O)[C@H](O)CC(C)C)CC3CO)nc(-c3ccccc3O)nc2c1` (stereo partly drawn) [Example 172, (R)-2-Hydroxy-1-{3-hydroxymethyl-4-[2-(2-hydroxy-phenyl)-7-methyl-quinazolin-4-yl]-piperazin-1-yl}-4-methyl-pentan-1-one], for which the 50% inhibitory concentration (IC50) is greater than 10 µM.
In the case of `C[C@@H](O)CC(=O)N1CCN(c2nc(-c3ccccc3O)nc3ccccc23)CC1` [Example 173, (R)-3-Hydroxy-1-(4-(2-(2-hydroxyphenyl)quinazolin-4-yl)piperazin-1-yl)butan-1-one], the concentration for half-maximal inhibition (IC50) was greater than 10 µM.
Regarding `CCCC(O)C(=O)N1CCN(c2nc(-c3ccccc3O)nc3ccccc23)CC1` (centres unmarked) [Example 174, 2-Hydroxy-1-(4-(2-(2-hydroxyphenyl)quinazolin-4-yl)piperazin-1-yl)pentan-1-one], the concentration for half-maximal inhibition (IC50) was 2 to 10 µM.
As to `Cc1ccc2c(N3CCN(C(=O)CCN4CCCCC4)CC3)nc(-c3ccccc3O)nc2c1` [Example 175, 1-(4-(2-(2-Hydroxyphenyl)-7-methylquinazolin-4-yl)piperazin-1-yl)-3-(piperidin-1-yl)propan-1-one], the IC50 was greater than 10 µM.
For `CC[C@@H](C)[C@@H](O)C(=O)N1CCN(c2nc(-c3ccccc3O)nc3cc(C)ccc23)CC1` [Example 176, (2R,3R)-2-Hydroxy-1-(4-(2-(2-hydroxyphenyl)-7-methylquinazolin-4-yl)piperazin-1-yl)-3-methylpentan-1-one], the IC50 was greater than 10 µM.
The result for `Cc1ccc2c(N3CCN(C(=O)[C@H](O)C(F)(F)F)CC3)nc(-c3ccccc3O)nc2c1` [Example 177, (S)-3,3,3-Trifluoro-2-hydroxy-1-(4-(2-(2-hydroxyphenyl)-7-methylquinazolin-4-yl)piperazin-1-yl)propan-1-one] reads 2 to 10 µM; that for `CC(O)(C(=O)N1CCN(c2nc(-c3ccccc3O)nc3ccccc23)CC1)C(F)(F)F` (centres unmarked) [Example 178, 2-(Trifluoromethyl)-2-hydroxy-1-(4-(2-(2-hydroxyphenyl)quinazolin-4-yl)piperazin-1-yl)propan-1-one], greater than 10 µM; that for `Cc1ccc2c(N3CCN(C(=O)C(O)CCl)CC3)nc(-c3ccccc3O)nc2c1` (centres unmarked) [Example 179, 3-Chloro-2-hydroxy-1-(4-(2-(2-hydroxyphenyl)-7-methylquinazolin-4-yl)piperazin-1-yl)propan-1-one], greater than 10 µM.
